Read-outs that look alike come from different tables or passages of the source.
Tests used:
[1] = target: Ba/F3 cells expressing EGFR-T790M/Del19 (Homo sapiens, UniProt P00533, T790M, cells depend on it, form not given); assay: Cell anti-proliferation experiment 1, BaF3 cells expressing EGFR mutation (CellTiter-Glo); format: cell-based; settings: 3 days, CTG, read-out: EGFR-T790M/Del19 IC50
[2] = target: Ba/F3 cells expressing EGFR-T790M/L858R (Homo sapiens, UniProt P00533, T790M/L858R, cells depend on it); assay: as above; format: cell-based; settings: 3 days, CTG, read-out: EGFR-T790M/L858R IC50
Method: (§6) Test purpose: to detect the effect of the test compounds on the proliferation of cell lines containing EGFR mutations in BaF3 cells • 2. Test information: • 2.1. Cell information: Cell lines containing EGFR mutations in BaF3 were from WuXiAppTec: • BaF3-cell lines expressing EGFR mutation • EGFR-T790M/Del19 • EGFR-C797S/Del19 • EGFR-T790M/L858R • EGFR-C797S/L858R • EGFR-C797S/T790M/L858R • EGFR-C797S/T790M/Del19 • EGFR-WT wild-type cell lines • 2.2. Test method • Day 0: Cells were seeded in a plate. • a. An ultraviolet lamp of a biological safety cabinet was turned on and countdown was started for 30 minutes. • b. A medium was preheated in a 37° C. water bath. • c. After the ultraviolet irradiation was finished, the biological safety cabinet was opened. […] The cells were removed from an incubator, blown to a uniform cell suspension in the biological safety cabinet and counted. • e. […] The IC50 of each compound was calculated by computer fitting with XL-Fit analysis software (the IC50 of the compound on the cell activity inhibition could be obtained by reading the concentrations of the corresponding compounds at 500 inhibition rate). Inhibition rate % C (reading value of the control group without drug−reading value of the sample)/reading value of the control group without drug×100. • 3.

[3] = target: T1, BaF3 cells expressing EML-4-ALK-WT (Homo sapiens, UniProt Q9UM73); assay: Cell anti-proliferation experiment 3, BaF3 cells with ALK fusion (CellTiter-Glo); format: cell-based; settings: 3 days, CTG, read-out: EML-4-ALK-WT IC50
T1 construct: fused on or other part: Q9HC35 (Echinoderm microtubule-associated protein-like 4)
T1 sequence (Q9UM73 whole entry, change not shown, the tested form may be a part): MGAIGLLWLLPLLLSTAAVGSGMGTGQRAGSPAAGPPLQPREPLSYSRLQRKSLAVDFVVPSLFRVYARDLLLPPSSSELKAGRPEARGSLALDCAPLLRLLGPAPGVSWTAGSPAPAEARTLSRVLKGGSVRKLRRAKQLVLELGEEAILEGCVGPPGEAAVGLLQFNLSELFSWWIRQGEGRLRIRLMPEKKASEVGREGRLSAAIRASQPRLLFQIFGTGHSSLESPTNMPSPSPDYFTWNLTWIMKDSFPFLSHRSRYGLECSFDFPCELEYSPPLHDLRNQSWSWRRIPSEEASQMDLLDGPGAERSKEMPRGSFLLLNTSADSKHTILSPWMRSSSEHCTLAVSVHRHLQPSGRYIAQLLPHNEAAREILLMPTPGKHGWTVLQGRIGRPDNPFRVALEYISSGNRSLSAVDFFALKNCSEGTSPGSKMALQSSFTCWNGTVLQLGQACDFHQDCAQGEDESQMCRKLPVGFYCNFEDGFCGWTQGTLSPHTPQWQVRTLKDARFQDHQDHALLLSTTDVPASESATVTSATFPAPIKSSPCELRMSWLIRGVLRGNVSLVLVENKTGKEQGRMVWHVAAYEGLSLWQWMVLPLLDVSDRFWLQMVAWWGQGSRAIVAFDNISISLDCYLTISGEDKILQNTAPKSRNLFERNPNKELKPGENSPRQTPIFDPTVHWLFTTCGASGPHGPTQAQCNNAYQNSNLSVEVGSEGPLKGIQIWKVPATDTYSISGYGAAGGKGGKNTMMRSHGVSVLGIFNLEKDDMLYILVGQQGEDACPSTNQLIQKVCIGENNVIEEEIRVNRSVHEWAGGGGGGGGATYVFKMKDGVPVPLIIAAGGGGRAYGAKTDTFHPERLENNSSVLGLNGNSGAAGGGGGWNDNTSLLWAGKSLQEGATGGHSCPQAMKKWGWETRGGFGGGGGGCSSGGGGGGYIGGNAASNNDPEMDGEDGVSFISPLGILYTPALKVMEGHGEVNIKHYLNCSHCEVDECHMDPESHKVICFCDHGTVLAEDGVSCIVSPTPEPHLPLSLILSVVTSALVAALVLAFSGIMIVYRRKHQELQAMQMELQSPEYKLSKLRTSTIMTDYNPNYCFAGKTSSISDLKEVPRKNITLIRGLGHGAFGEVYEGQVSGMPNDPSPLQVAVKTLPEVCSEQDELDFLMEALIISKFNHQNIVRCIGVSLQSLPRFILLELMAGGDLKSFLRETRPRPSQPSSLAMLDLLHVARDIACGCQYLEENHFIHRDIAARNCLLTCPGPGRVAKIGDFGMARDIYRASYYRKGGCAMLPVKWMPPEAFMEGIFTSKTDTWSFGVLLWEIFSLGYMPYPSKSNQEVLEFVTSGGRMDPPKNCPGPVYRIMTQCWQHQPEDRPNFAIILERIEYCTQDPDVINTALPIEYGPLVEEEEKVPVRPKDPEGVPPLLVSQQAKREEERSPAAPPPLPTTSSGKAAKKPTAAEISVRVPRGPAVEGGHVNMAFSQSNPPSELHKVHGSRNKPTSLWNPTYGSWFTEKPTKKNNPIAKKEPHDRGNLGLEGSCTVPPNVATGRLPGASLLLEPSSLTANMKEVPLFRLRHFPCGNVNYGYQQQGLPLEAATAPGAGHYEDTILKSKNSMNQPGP
Description: (§1) • 1. […] Test information: • 2.1. Cell information: Cell lines containing ALK mutations in BaF3 were from WuXiAppTec: • Ba/F3-cell lines expressing ALK gene fusion and mutation • Ba/F3-EML-4-ALK-WT • Ba/F3-EML-4-ALK-L 1196M • 2.2.
(§2) Test results: The IC50 values of the compound DA and the control compound against BaF3 cells expressing EML-4-ALK-WT and EML-4-ALK-L1196M are shown in Table 22. • 4.

[4] = target: Ba/F3 cells expressing EGFR-C797S/Del19 (Homo sapiens, UniProt P00533, C797S, cells depend on it, form not given); assay: Cell anti-proliferation experiment 1, BaF3 cells expressing EGFR mutation (CellTiter-Glo); format: cell-based; settings: 3 days, CTG, read-out: EGFR-C797S-Del19 IC50
Ba/F3 cells expressing EGFR-C797S/Del19, sequence (P00533 with tags, fused parts or gaps DEL746-750/C797S, form open): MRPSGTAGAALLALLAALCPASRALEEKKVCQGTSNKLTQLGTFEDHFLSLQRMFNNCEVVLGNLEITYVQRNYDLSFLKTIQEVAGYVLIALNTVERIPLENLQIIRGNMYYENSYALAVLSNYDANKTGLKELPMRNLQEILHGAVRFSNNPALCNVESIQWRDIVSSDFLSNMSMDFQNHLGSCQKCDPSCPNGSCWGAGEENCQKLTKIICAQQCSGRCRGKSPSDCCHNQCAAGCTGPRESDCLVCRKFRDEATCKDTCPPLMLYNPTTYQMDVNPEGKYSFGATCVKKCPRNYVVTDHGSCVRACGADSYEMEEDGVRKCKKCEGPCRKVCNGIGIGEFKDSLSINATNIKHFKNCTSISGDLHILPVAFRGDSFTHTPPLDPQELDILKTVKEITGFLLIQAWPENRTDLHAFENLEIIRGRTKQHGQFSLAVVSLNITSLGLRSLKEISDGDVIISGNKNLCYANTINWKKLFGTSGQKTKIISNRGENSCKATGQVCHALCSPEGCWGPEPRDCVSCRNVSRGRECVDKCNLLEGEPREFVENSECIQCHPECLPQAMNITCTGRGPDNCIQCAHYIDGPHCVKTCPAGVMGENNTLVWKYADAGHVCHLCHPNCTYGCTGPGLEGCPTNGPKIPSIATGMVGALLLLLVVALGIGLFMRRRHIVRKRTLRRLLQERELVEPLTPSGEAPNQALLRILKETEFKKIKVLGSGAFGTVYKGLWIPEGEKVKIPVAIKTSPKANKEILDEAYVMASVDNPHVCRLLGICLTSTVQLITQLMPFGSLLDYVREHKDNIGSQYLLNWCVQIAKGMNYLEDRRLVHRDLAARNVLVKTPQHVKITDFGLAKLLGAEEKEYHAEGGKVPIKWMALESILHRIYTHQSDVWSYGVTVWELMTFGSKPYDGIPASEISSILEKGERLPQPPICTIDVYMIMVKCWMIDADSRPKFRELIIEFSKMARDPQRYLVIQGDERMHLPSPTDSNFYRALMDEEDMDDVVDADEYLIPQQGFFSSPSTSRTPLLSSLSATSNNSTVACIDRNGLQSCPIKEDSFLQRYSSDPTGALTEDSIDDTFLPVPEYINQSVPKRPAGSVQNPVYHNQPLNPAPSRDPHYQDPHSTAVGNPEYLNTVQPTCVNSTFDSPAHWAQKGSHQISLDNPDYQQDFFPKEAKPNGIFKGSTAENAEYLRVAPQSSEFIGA

[5] = target: T2, BaF3 cells expressing EML-4-ALK-L1196M (Homo sapiens, UniProt Q9UM73, L1196M, cells depend on it); assay: Cell anti-proliferation experiment 3, BaF3 cells with ALK fusion and mutation (CellTiter-Glo); format: cell-based; settings: 3 days, CTG, read-out: EML-4-ALK-L1196M IC50
T2 construct: fused on or other part: Q9HC35 (Echinoderm microtubule-associated protein-like 4)
T2 sequence (Q9UM73 whole entry L1196M, the tested form may be a part): as the sequence (Q9UM73 whole entry, change not shown, the tested form may be a part) above, with L1196M counted along it
Description: as §1, §2

[6] = system: PC9 cells expressing EGFR-Del19; assay: Cell anti-proliferation experiment 2, PC9 cells (SRB); format: cell-based; settings: Homo sapiens, PC-9, 72 h, read-out: EGFR-Del 19 GI50
Method: (§3) • 1. […] Test information: • 2.1. Cell information: PC9 cells carried EGFR Del19 mutation, and the rest of mutant cells were constructed from PC9 cells according to the conventional stable cell strain construction method. • PC9-cell lines expressing EGFR mutation • EGFR-Del19 • EGFR-T790M/Del19 • EGFR-C797S/T790M/Del19 • 2.2. Test method:
(§4) The test compounds were diluted by 5 times each time with an appropriate concentration as an initial concentration of the test, and totally diluted into 6 concentration gradients. […] SRB (Sulforhodamine B) detection method was used, and the optical density value of each well was read by a microplate reader at 490 nm wavelength.
(§5) The optical density of the cells at the drug action of 0 was set as a Tz value representing the value of the cells at the time that the drug was added. The optical density value of the cells after the solvent control DMSO acted for 72 hours was set as a C value. The optical density of the cells on which the test compounds acted for 72 hours was set as a Ti value. The response of the cells to the drug was calculated according to a method proposed by the U.S. NIH-NCI (National Institutes of Health-National Institute of Cancer): When Ti is more than or equal to Tz, the value was [(Ti−Tz)/(C−Tz)]×100; and when Ti is less than Tz, the value was [(Ti−Tz)/Tz]×100.

[7] = system: PC9 cells expressing EGFR-C797S/T790M/Del19; assay: as above; format: cell-based; settings: Homo sapiens, PC-9, 72 h, read-out: EGFR-C797S/T790M/Del19 GI50
Method: as §3, §4, §5

[8] = system: PC9 cells expressing EGFR-T790M/Del19; assay: as above; format: cell-based; settings: Homo sapiens, PC-9, 72 h, read-out: EGFR-T790M/Del19 GI50
Method: as §3, §4, §5

[9] = Comparative experiment of hygroscopicity (Chinese Pharmacopoeia 2020); format: physicochemical
Description: The description of hygroscopic characteristics and the definition of hygroscopic weight gain are as follows: • Deliquescence: absorbs sufficient amount of water to form a liquid; • Very hygroscopic: the weight gain by hygroscopy is not less than 15%; • Hygroscopic: the weight gain by hygroscopy is less than 15% but not less than 2%; • Slightly hygroscopic: the weight gain by hygroscopy is less than 2% but not less than 0.2%; and
Not or almost not hygroscopic: the weight gain by hygroscopy is less than 0.2% from hygroscopicity.

[10] = target: Ba/F3 cells expressing EGFR-C797S/L858R (Homo sapiens, UniProt P00533, C797S/L858R, cells depend on it); assay: Cell anti-proliferation experiment 1, BaF3 cells expressing EGFR mutation (CellTiter-Glo); format: cell-based; settings: 3 days, CTG, read-out: EGFR-C797S/L858R IC50
Method: as §6

[11] = target: Ba/F3 cells expressing EGFR-WT (Homo sapiens, UniProt P00533); assay: Cell anti-proliferation experiment 1, BaF3 EGFR-WT wild-type cell line (CellTiter-Glo); format: cell-based; settings: read-out: EGFR-WT IC50
Method: (§7) Test purpose: to detect the effect of the test compounds on the proliferation of cell lines containing EGFR mutations in BaF3 cells • 2. […] Cell information: Cell lines containing EGFR mutations in BaF3 were from WuXiAppTec: • BaF3-cell lines expressing EGFR mutation • EGFR-T790M/Del19 • EGFR-C797S/Del19 • EGFR-T790M/L858R • EGFR-C797S/L858R • EGFR-C797S/T790M/L858R • EGFR-C797S/T790M/Del19 • EGFR-WT wild-type cell lines • 2.2. Test method • Day 0: Cells were seeded in a plate. • a. An ultraviolet lamp of a biological safety cabinet was turned on and countdown was started for 30 minutes. • b. A medium was preheated in a 37° C. water bath. • c. After the ultraviolet irradiation was finished, the biological safety cabinet was opened. The pre-heated medium, PBS, and the like, were wiped with alcohol and placed in the biological safety cabinet. • d. The cells were removed from an incubator, blown to a uniform cell suspension in the biological safety cabinet and counted. • e. Based on the cell counting results, the cell suspension was adjusted to a density of 3,000 cells per well and 50 microliters per well, and seeded in 384-well plates. • f. The cells after seeding were incubated in a 5% CO2 incubator at 37° C. for 3 hours. • g. Compounds were added to the cell plates using Tecan (liquid workstation). • Day 3: the cell plate added with the compounds and CTG (CellTiter-Glo chemiluminescence cell activity assay reagent) were equilibrated at room temperature, 25 μl of CTG was added to each well, centrifuged at 1,000 rpm for 1 minute, and shaken for 1-2 minutes. And centrifuging for 1 minute at 1,000 rpm again, the cell plates were allowed to settle for 10 minutes to detect a signal value in Envision. The IC50 of each compound was calculated by computer fitting with XL-Fit analysis software (the IC50 of the compound on the cell activity inhibition could be obtained by reading the concentrations of the corresponding compounds at 500 inhibition rate). Inhibition rate % C (reading value of the control group without drug−reading value of the sample)/reading value of the control group without drug×100. • 3.

[12] = target: Ba/F3 cells expressing EGFR-C797S/T790M/L858R (Homo sapiens, UniProt P00533, T790M/C797S/L858R, cells depend on it); assay: Cell anti-proliferation experiment 1, BaF3 cells expressing EGFR mutation (CellTiter-Glo); format: cell-based; settings: read-out: EGFR-C797S/T790M/L858R IC50
Ba/F3 cells expressing EGFR-C797S/T790M/L858R, sequence (P00533 whole entry T790M/C797S/L858R): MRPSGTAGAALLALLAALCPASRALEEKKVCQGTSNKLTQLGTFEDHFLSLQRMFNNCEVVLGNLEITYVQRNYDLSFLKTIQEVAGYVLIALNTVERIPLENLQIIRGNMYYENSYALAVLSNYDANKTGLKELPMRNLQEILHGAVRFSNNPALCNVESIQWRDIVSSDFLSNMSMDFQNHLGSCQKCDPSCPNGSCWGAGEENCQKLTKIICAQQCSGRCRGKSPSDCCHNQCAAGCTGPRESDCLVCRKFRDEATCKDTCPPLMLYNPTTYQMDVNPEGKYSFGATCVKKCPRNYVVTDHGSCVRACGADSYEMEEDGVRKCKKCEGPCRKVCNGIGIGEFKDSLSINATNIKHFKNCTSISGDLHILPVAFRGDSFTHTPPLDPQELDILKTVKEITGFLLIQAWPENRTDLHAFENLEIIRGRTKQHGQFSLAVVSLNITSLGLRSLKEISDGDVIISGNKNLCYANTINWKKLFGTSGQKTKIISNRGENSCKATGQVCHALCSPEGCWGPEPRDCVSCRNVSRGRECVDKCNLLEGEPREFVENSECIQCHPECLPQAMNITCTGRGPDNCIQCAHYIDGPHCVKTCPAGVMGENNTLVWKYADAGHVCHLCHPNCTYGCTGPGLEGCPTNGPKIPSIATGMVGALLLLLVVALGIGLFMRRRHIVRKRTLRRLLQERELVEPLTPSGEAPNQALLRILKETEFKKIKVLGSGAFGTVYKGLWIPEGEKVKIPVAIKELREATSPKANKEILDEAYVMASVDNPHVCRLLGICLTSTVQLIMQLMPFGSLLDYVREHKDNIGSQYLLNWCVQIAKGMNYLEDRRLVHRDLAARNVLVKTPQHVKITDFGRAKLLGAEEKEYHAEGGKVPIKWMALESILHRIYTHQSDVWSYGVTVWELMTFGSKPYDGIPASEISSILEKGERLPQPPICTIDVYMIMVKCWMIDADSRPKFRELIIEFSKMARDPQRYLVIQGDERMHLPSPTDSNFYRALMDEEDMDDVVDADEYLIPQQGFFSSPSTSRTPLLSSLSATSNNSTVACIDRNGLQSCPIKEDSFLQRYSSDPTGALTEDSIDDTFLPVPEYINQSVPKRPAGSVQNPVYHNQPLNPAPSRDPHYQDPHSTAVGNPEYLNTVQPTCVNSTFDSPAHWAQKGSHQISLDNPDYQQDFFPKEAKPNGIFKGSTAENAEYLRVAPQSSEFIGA
Method: as §7

Solubility test = format: physicochemical; settings: Solution with pH = 6.8, 25° C.±2° C.
[13] = target: Ba/F3 cells expressing EGFR-C797S/T790M/Del19 (Homo sapiens, UniProt P00533, T790M/C797S, cells depend on it, form not given); assay: Cell anti-proliferation experiment 1, BaF3 cells expressing EGFR mutation (CellTiter-Glo); format: cell-based; settings: read-out: EGFR-C797S/T790M/Del19 IC50
[14] = target: T3, BaF3 EML-4-ALK-L1196M cell line (Homo sapiens, UniProt Q9UM73, L1196M, cells depend on it); assay: Cell anti-proliferation experiment 4 (CCK-8); format: cell-based; settings: BaF3 EML-4-ALK-L1196M cells, 72 hours
T3 construct: fused on or other part: Q9HC35 (Echinoderm microtubule-associated protein-like 4)
T3 sequence (Q9UM73 whole entry L1196M, the tested form may be a part): as the sequence (Q9UM73 whole entry, change not shown, the tested form may be a part) above, with L1196M counted along it
Method: • 1. […] Test materials • BaF3 EML-4-ALK-L1196M cell line, brand: KYinno, article number: KC-0102 • Cell Counting Kit-8 (CCK-8), brand: Targetmol, article number: C0005 • Multifunctional microplate reader, POLARstar Omega, brand: BMG LABTECH • 3. […] 10 μL of the compound diluted in gradient was added to the cell plate to give final concentrations of the compounds as 500, 166.67, 55.56, 18.52, 6.17, 2.06, 0.69, 0.23 and 0.08 nM. • d. […] Test results: The IC50 values of compound DA and compound 1 in the patent application WO2021073498A1 against BaF3 cells expressing EML-4-ALK-L1196M are shown in Table 23.

## COc1cc(N2CCC(N3CCN(C)CC3)CC2)c(C)cc1Nc1ncc(Br)c(Nc2ccc(C)cc2P(C)(C)=O)n1 [Compound DA, (2-((5-Bromo-2-((2-methoxy-5-methyl-4-(4-(4-methylpiperazin-1-yl)piperidin-1-yl)phenyl)amino)pyrimidin-4-yl)amino)-5-methylphenyl)dimethylphosphorus oxide]
[1]
  GI50: 0.0065 µM
[2]
  GI50: 0.0225 µM
[3]
  GI50: 0.008 µM
[4]
  GI50: 0.0481 µM
[5]
  GI50: 0.0131 µM
[6]
  GI50: 0.0484 µM
[7]
  GI50: 0.0156 µM
[8]
  GI50: 0.0128 µM
[9]; class by weight gain after 24 h
  Hygroscopicity: Hygroscopic (the weight gain by hygroscopy is less than 15% but not less than 2%)
[9]; hygroscopicity test, 24 h
  Weight gain % after 24 h: 3.78%
[10]
  GI50: 0.0326 µM
[11]
  GI50: 1.26 µM
[12]
  GI50: 0.0641 µM
Solubility test
  Solubility for 24 h: 2.11 mg/mL
[13]
  GI50: 0.0165 µM
[14]; CCK-8, first test, read-out: IC50 in the first test
  GI50: 0.0151 µM
[14]; CCK-8, second test, read-out: IC50 in the second test
  GI50: 0.0104 µM
